Measured values published in ChEMBL document CHEMBL1138416, “Synthesis and SAR of potent and selective androgen receptor antagonists: 5,6-Dichloro-benzimidazole derivatives” (Bioorg Med Chem Lett, 2007).
Active and inactive are the calls of the source. The rule behind the calls is not given here.

Experiments:
Rattus norvegicus [1] = species: Rattus norvegicus; assay: Inhibition of prostate weight in testosterone treated castrated immature Sprague-Dawley rat at 2 mg/day; format: functional, Prostate gland; settings: for inhibition: Prostate gland
Rattus norvegicus [2] = species: Rattus norvegicus; assay: Inhibition of prostate weight in testosterone treated castrated immature Sprague-Dawley rat at 0.3 mg/day
Rattus norvegicus [3] = species: Rattus norvegicus; assay: Inhibition of prostate weight in testosterone treated castrated immature Sprague-Dawley rat; format: functional, Prostate gland
[4] = Bioavailability in orally dosed Sprague-Dawley rat; format: ADME, organism-based; settings: in vivo, po
[5] = Half life in orally dosed Sprague-Dawley rat; format: ADME, organism-based; settings: in vivo, po
[6] = biological target: T1, Androgen receptor (Homo sapiens) (UniProt P10275); assay: Antagonist activity at androgen receptor expressed in COS cell at 3000 nM by whole cell assay; format: functional, cell-based
T1 sequence (whole entry): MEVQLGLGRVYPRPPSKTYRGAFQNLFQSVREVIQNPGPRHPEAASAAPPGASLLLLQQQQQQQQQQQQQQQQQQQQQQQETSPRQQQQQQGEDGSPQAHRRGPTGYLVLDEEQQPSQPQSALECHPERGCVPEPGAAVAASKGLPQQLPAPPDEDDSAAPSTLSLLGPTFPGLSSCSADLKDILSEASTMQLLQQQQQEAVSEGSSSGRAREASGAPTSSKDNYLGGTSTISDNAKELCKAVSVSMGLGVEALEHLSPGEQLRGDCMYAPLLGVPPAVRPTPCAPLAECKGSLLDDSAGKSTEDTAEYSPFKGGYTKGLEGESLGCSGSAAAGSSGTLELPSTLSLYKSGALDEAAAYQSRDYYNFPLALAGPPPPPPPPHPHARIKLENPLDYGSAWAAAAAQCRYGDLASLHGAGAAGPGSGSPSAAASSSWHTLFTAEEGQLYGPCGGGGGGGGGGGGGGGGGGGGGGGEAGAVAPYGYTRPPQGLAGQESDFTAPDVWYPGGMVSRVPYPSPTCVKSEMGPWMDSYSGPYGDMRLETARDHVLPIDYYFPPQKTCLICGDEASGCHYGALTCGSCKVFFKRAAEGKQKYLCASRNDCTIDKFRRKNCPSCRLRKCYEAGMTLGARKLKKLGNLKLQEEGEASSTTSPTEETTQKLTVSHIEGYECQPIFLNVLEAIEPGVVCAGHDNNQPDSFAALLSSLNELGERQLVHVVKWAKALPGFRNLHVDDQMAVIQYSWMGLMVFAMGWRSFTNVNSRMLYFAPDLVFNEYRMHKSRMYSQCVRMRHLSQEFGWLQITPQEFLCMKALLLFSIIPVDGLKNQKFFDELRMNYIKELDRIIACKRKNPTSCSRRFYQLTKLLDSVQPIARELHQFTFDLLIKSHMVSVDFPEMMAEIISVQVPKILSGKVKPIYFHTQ

Rattus norvegicus [7] = species: Rattus norvegicus; assay: Inhibition of prostate weight in testosterone treated castrated mature Sprague-Dawley rat; format: functional; settings: Prostate gland, read-out: ID50 (the source's name)
[8] = biological target: T1, Androgen receptor (Homo sapiens); assay: Antagonist activity at androgen receptor expressed in COS cell by whole cell assay; format: functional, cell-based

| SMILES | Inhibition (Rattus norvegicus [1]) [%] | also measured |
| --- | --- | --- |
| CC(C)(O)c1nc2cc(Cl)c(Cl)cc2n1CC#N | 5 |  |
| CC(C)(O)c1nc2cc(Cl)c(C(F)(F)F)cc2[nH]1 | 42 |  |
| CCC(CC)c1nc2cc(Cl)c(Cl)cc2n1C | 77 |  |
| CC(O)(c1nc2cc(Cl)c(Cl)cc2[nH]1)C(F)(F)F (stereo not drawn) | 74 |  |
| CCOCC(C)(O)c1nc2cc(Cl)c(Cl)cc2n1C (stereo not drawn) | 10 |  |
| CC(O)(CC#N)c1nc2cc(Cl)c(Cl)cc2[nH]1 (stereo not drawn) | 64 |  |
| OC(c1nc2cc(Cl)c(Cl)cc2[nH]1)C(F)(F)F (stereo in doubt; (-)-1) |  | Inhibition (Rattus norvegicus [2]): 80%; ID50 (Rattus norvegicus [3]): 0.12 mg/day |
| CCSCC(C)(O)c1nc2cc(Cl)c(Cl)cc2n1C (stereo not drawn) | 86 |  |
| CSCn1c(C(C)(C)O)nc2cc(Cl)c(Cl)cc21 | 96 |  |
| CCCC(C)c1nc2cc(Cl)c(Cl)cc2n1C (stereo not drawn) | 23 |  |
| COC(c1nc2cc(Cl)c(Cl)cc2n1C)C(F)(F)F (stereo not drawn) | 60 |  |
| CCSCC(C)(O)c1nc2cc(Cl)c(Cl)cc2n1CC (stereo not drawn) | 79 | bioavailability [4]: 15%; half-life [5]: 1 h |
| Cn1c(C(C)(O)CSc2ccc(F)cc2)nc2cc(Cl)c(Cl)cc21 (stereo not drawn) | 6 |  |
| Cn1c(C(C)(O)CSCC(F)(F)F)nc2cc(Cl)c(Cl)cc21 (stereo not drawn) | 6 |  |
| CC(O)(CS(=O)(=O)c1ccc(F)cc1)c1nc2cc(Cl)c(Cl)cc2[nH]1 (stereo not drawn) | 29 |  |
| CC(O)(c1nc2cc(Cl)c(Cl)cc2[nH]1)c1ccco1 (stereo not drawn) | 20 |  |
| CCn1c(C(C)(O)CS(=O)(=O)CC)nc2cc(Cl)c(Cl)cc21 (stereo not drawn) | 74 | bioavailability [4]: 99%; inhibition [6]: 20%; half-life [5]: 15 h |
| OC(c1nc2cc(Cl)c(Cl)cc2[nH]1)C(F)(F)F (stereo in doubt; 1) | 96 | bioavailability [4]: 132%; ID50 (Rattus norvegicus [3]): 0.15 mg/day; half-life [5]: 14.7 h; ED50 (Rattus norvegicus [7]): 30 mg/kg |
| CC(O)(CS(C)(=O)=O)c1nc2cc(Cl)c(Cl)cc2[nH]1 (stereo not drawn) |  | inhibition (Rattus norvegicus [1]): inactive |
| CCS(=O)(=O)CC(C)(O)c1nc2cc(Cl)c(Cl)cc2n1C (stereo not drawn) | 79 |  |
| CCCCn1c(C(C)(C)O)nc2cc(Cl)c(Cl)cc21 |  | inhibition (Rattus norvegicus [1]): inactive |
| CCn1c(C(C)(C)O)nc2cc(Cl)c(Cl)cc21 | 82 |  |
| Cc1ccc(S(=O)(=O)CC(C)(O)c2nc3cc(Cl)c(Cl)cc3[nH]2)cc1 (stereo not drawn) | 11 |  |
| FC(F)(F)Cc1nc2cc(Cl)c(Cl)cc2[nH]1 | 90 | inhibition [6]: 30%; ID50 (Rattus norvegicus [3]): 0.097 mg/day; half-life [5]: 5.3 h; ED50 (Rattus norvegicus [7]): 18 mg/kg |
| CCC(CC)c1nc2cc(Cl)c(Cl)cc2[nH]1 | 80 |  |
| CC(C)(O)c1nc2cc(C#N)c(C(F)(F)F)cc2[nH]1 | 63 |  |
| CC(O)c1nc2cc(Cl)c(Cl)cc2[nH]1 (stereo not drawn) |  | inhibition (Rattus norvegicus [1]): inactive |

| SMILES | Inhibition (Rattus norvegicus [1]) [%] | also measured |
| --- | --- | --- |
| COCn1c(C(C)(C)O)nc2cc(Cl)c(Cl)cc21 | 90 |  |
| Cn1c(C(C)(C)O)nc2cc(Cl)c(Cl)cc21 | 91 | bioavailability [4]: 100%; half-life [5]: 3 h |
| CC(O)(CO)c1nc2cc(Cl)c(Cl)cc2[nH]1 (stereo not drawn) | 67 |  |
| OC(c1nc2cc(Cl)c(Cl)cc2[nH]1)C(F)(F)F (stereo in doubt; (+)-1) |  | Inhibition (Rattus norvegicus [2]): 81%; ID50 (Rattus norvegicus [3]): 0.032 mg/day |
| CCCC(C)c1nc2cc(Cl)c(Cl)cc2[nH]1 (stereo not drawn) | 32 |  |
| Cn1c(C(C)(O)CSCc2ccccc2)nc2cc(Cl)c(Cl)cc21 (stereo not drawn) | 63 |  |
| CCC(CC)c1nc2cc(Cl)c(Cl)cc2n1CC | 3 |  |
| Cn1c(C(C)(O)CS(=O)(=O)Cc2ccccc2)nc2cc(Cl)c(Cl)cc21 (stereo not drawn) | 16 |  |
| CCCSCC(C)(O)c1nc2cc(Cl)c(Cl)cc2n1C (stereo not drawn) | 40 |  |
| CCC(C)c1nc2cc(Cl)c(Cl)cc2n1C (stereo not drawn) |  | inhibition (Rattus norvegicus [1]): inactive |
| CCn1c(C(C)C)nc2cc(Cl)c(Cl)cc21 | 82 |  |
| CC(O)(c1nc2cc(Cl)c(Cl)cc2[nH]1)c1cccs1 (stereo not drawn) | 16 |  |
| CCCn1c(C(C)(C)O)nc2cc(Cl)c(Cl)cc21 | 53 |  |
| CC(C)c1nc2cc(Cl)c(Cl)cc2[nH]1 | 11 |  |
| CCC(C)c1nc2cc(Cl)c(Cl)cc2[nH]1 (stereo not drawn) | 88 |  |
| CC(C)c1nc2cc(Cl)c(Cl)cc2n1C | 93 |  |
| CC(O)(CS(=O)(=O)c1ccc(F)cc1)C(=O)Nc1ccc(C#N)c(C(F)(F)F)c1 (stereo not drawn) [BICALUTAMIDE] | 70 | ID50 (Rattus norvegicus [3]): 0.23 mg/day; ED50 (Rattus norvegicus [7]): 30 mg/kg |
| Cn1c(C(C)(O)CS(=O)(=O)CC(F)(F)F)nc2cc(Cl)c(Cl)cc21 (stereo not drawn) | 38 |  |
| CC(C)CS(=O)(=O)CC(C)(O)c1nc2cc(Cl)c(Cl)cc2n1C (stereo not drawn) | 7 |  |
| CCc1nc2cc(Cl)c(Cl)cc2[nH]1 |  | inhibition (Rattus norvegicus [1]): inactive |
| CC(C)(O)c1nc2cc(F)c(Cl)cc2[nH]1 | 57 |  |
| Cn1c(CC(F)(F)F)nc2cc(Cl)c(Cl)cc21 | 60 |  |
| CC(C)CSCC(C)(O)c1nc2cc(Cl)c(Cl)cc2n1C (stereo not drawn) | 9 |  |
| CC(C)(O)c1nc2cc(Cl)c(Cl)cc2[nH]1 | 77 | bioavailability [4]: 100%; ID50 [8]: 80 nM; inhibition [6]: 90%; half-life [5]: 4 h |
| Cn1c(C(O)(O)C(F)(F)F)nc2cc(Cl)c(Cl)cc21 | 94 | ID50 (Rattus norvegicus [3]): 0.17 mg/day; ED50 (Rattus norvegicus [7]): 23 mg/kg |
| CCCS(=O)(=O)CC(C)(O)c1nc2cc(Cl)c(Cl)cc2n1C (stereo not drawn) | 26 |  |
